Laboratory results reported in patent US4677111A, “N-benzoyl-N'-(3-nitrophenyl) urea compounds, and antitumorous compositions containing them” (Ishihara Sangyo Kaisha Ltd., priority 1984, dated 1987).
Where two headings read alike, the source gives them in different places.

Legend:
p-388 leukemia cells [1] = test: Test Example 1 (Intraperitoneal-intraperitoneal) antitumour activity, increase life span; assay type: in vivo, BDF1 mice; conditions: Mus musculus, P388, ip, 720 h
Experimental: To BDF1 mice, p-388 leukemia cells were intraperitoneally inoculated in an amount of 1×10^6 cells/mouse. A test drug was intraperitoneally administered twice, i.e. one day and four days after the inoculation. […] The increase life span ILS (%) of each treated group was obtained with the number of survival days of mice of the control group to which a physiological saline was administered, being evaluated as 0. The drugs were dispersions obtained by adding small amounts of surfactants (e.g. Tween-80) to the test compounds.
ILS (%)*: Increase Life Span, calculated in accordance with the following
formula: ILS (%) = MST100, where MST is the ratio of median survival time
of test and control animals.

p-388 leukemia cells [2] = test: Test Example 2 (intraperitoneal-oral) antitumour activity, increase life span; assay type: in vivo, BDF1 mice; conditions: oral drug, days 1 and 4
Experimental: A test drug was orally administered twice i.e. one day and four days after the inoculation.
The mixture was pulverized in a wet system by a sand mill using glass beads (80% of particles having a particle size of not larger than 2 μm). Then, 5 parts by weight of xanthane gum (2% solution) was added thereto to obtain an aqueous suspension.

Acute toxicity, LD50 = conditions: mouse, in vivo, ip; ddY mice, intraperitoneal, Formulation Example 4
Experimental: To ddY mice (10 animals), a drug containing one of Compound Nos. 1-4, 7, 9 and 10 of the present invention formulated in accordance with Formulation Example 4 was intraperitoneally administered, and the LD50 value was measured and found to be at least 100 mg/kg in each case, and the LD50 value of Compound No. 6 of the invention found to be at least 50 mg/kg.
The Compound No. 2 of the present invention was preliminarily pulverized by a centrifugal pulverizer. On the other hand, 5 parts by weight of polyoxyethylene (60) hardened castor oil, 0.2 part by weight of silicone and 0.3 part by weight of a polyoxyethylene-polyoxypropylene block polymer were added to 79.5 parts by weight of a physiological saline to obtain an aqueous solution, to which 10 parts by weight of the above pulverized Compound No. 2 of the present invention was added. The mixture was pulverized in a wet system by a sand mill using glass beads (80% of particles having a particle size of not larger than 2 μm). Then, 5 parts by weight of xanthane gum (2% solution) was added thereto to obtain an aqueous suspension.

[3] = read-out: ILS (increase life span)
[4] = i.p. drug, days 1 and 4, 100 mg/kg/day, read-out: ILS (increase life span)

Question: For `O=c1[nH]cc(F)c(=O)[nH]1` [5-Fluorouracil, reference compound], which ILS at 60 mg/kg/day (p-388 leukemia cells [1]; [3]) is on record?
Answer: 85%

Question: Which ILS at 100 mg/kg/day (p-388 leukemia cells [1]; [4]) does the source give for `O=C(NC(=O)c1ccccc1Cl)Nc1ccc(Oc2ncc(Cl)cn2)c(Cl)c1` [Comparative Compound No. 1, N--(2chlorobenzoyl)-N'--[3chloro-4-(5-chloro-2-pyrimidinyloxy)phenyl]urea] here?
Answer: 33%

Question: What about the “ILS (increase life span)” value (p-388 leukemia cells [2]; 800 mg/kg/day) of the same compound?
Answer: 11%

Question: What about the “ILS (increase life span)” value (p-388 leukemia cells [2]; 1600 mg/kg/day) of the same compound?
Answer: 24%

Question: Which ILS at 100 mg/kg/day (p-388 leukemia cells [1]; [4]) does the source give for `O=C(NC(=O)c1ccccc1Br)Nc1ccc(Oc2ncc(I)cn2)c(Cl)c1` [Comparative Compound No. 2, N--(2bromobenzoyl)-N'--[3chloro-4-(5-iodo-2-pyrimidinyloxy)phenyl]urea] here?
Answer: 65%

Question: And the “ILS (increase life span)” value (p-388 leukemia cells [2]; 400 mg/kg/day)?
Answer: 4%

Question: What about the “ILS (increase life span)” value (p-388 leukemia cells [2]; 800 mg/kg/day) of the same compound?
Answer: 2%

Question: Which ILS at 200 mg/kg/day (p-388 leukemia cells [1]; i.p. drug, days 1 and 4) does the source give for `O=C(NC(=O)c1ccccc1Cl)Nc1ccc(Oc2ccc(Cl)nn2)c(Cl)c1` [Comparative Compound No. 3, N--(2chlorobenzoyl)-N'--[3chloro-4-(6-chloro-3-pyridazinyloxy)phenyl]urea, reference compound] here?
Answer: 24%

Question: Which ILS at 100 mg/kg/day (p-388 leukemia cells [1]; [4]) does the source give for `O=C(NC(=O)c1ccccc1Cl)Nc1ccc(Oc2ccc(Br)nn2)c(Cl)c1` [Comparative Compound No. 4, N--(2chlorobenzoyl)-N'--[4(6-bromo-3-pyridazinyloxy)-3-chlorophenyl]urea, reference compound] here?
Answer: 36%

Question: With `O=C(NC(=O)c1ccccc1[N+](=O)[O-])Nc1ccc(Oc2ccc(C(F)(F)F)cn2)c(Cl)c1` [Comparative Compound No. 5, reference compound] as the compound, how does the ILS at 100 mg/kg/day (p-388 leukemia cells [1]; [4]) read?
Answer: 70%

Question: With `O=C(NC(=O)c1ccccc1Cl)Nc1ccc(Oc2ccc(Br)cn2)c(Cl)c1` [Comparative Compound No. 6, N--(2chlorobenzoyl)-N'--[4(5-bromo-2-pyridyl-oxy)-3-chlorophenyl]urea, reference compound] as the compound, how does the ILS at 200 mg/kg/day (p-388 leukemia cells [1]; i.p. drug, days 1 and 4) read?
Answer: 50%

Question: Which results are given for `O=C(NC(=O)c1ccccc1[N+](=O)[O-])Nc1ccc(Oc2ncc(I)cn2)c([N+](=O)[O-])c1` [Compound No. 1, N-(2-nitrobenzoyl)-N'-[4-(5-iodo-2-pyrimidinyloxy)-3-nitrophenyl]urea]?
Answer: ILS at 50 mg/kg/day (p-388 leukemia cells [1]; [3]): 111%; LD50 (Acute toxicity, LD50): ≥ 100 mg/kg

Question: For `O=C(NC(=O)c1ccccc1[N+](=O)[O-])Nc1ccc(Oc2ncc(Cl)cn2)c([N+](=O)[O-])c1` [Compound No. 2, N-(2-nitrobenzoyl)-N'-[4-(5-chloro-2-pyrimidinyloxy)-3-nitrophenyl]urea], which ILS at 50 mg/kg/day (p-388 leukemia cells [1]; [3]) is on record?
Answer: 134%

Question: What about the “ILS (increase life span)” value (p-388 leukemia cells [2]; 200 mg/kg/day) of the same compound?
Answer: 90%

Question: And the “ILS (increase life span)” value (p-388 leukemia cells [2]; 400 mg/kg/day)?
Answer: 108%

Question: What about the LD50 (Acute toxicity, LD50) of the same compound?
Answer: ≥ 100 mg/kg

Question: What does the source list for `O=C(NC(=O)c1ccccc1[N+](=O)[O-])Nc1ccc(Oc2ncc(Br)cn2)c([N+](=O)[O-])c1` [Compound No. 3, N-(2-nitrobenzoyl)-N'-[4-(5-bromo-2-pyrimidinyloxy)-3-nitrophenyl]urea]?
Answer: ILS at 50 mg/kg/day (p-388 leukemia cells [1]; [3]): 120%; ILS (increase life span) (p-388 leukemia cells [2]; 200 mg/kg/day): 39%; ILS (increase life span) (p-388 leukemia cells [2]; 400 mg/kg/day): 46%; LD50 (Acute toxicity, LD50): ≥ 100 mg/kg

Question: With `O=C(NC(=O)c1ccccc1Cl)Nc1ccc(Oc2ncc(Cl)cn2)c([N+](=O)[O-])c1` [Compound No. 4, N-(2-chlorobenzoyl)-N'-[4-(5-chloro-2-pyrimidinyloxy)-3-nitrophenyl]urea] as the compound, how does the ILS at 100 mg/kg/day (p-388 leukemia cells [1]; [3]) read?
Answer: 102%

Question: And the LD50 (Acute toxicity, LD50)?
Answer: ≥ 100 mg/kg

Question: With `O=C(NC(=O)c1ccc(Cl)cc1[N+](=O)[O-])Nc1ccc(Oc2ncc(Cl)cn2)c([N+](=O)[O-])c1` [Compound No. 6, N-(4-chloro-2-nitrobenzoyl)-N'-[4-(5-chloro-2-pyrimidinyloxy)-3-nitrophenyl]urea] as the compound, how does the ILS at 25 mg/kg/day (p-388 leukemia cells [1]; [3]) read?
Answer: 165%

Question: And the LD50 (Acute toxicity, LD50)?
Answer: ≥ 50 mg/kg

Question: With `O=C(NC(=O)c1ccccc1[N+](=O)[O-])Nc1ccc(Oc2ccc(Br)nn2)c([N+](=O)[O-])c1` [Compound No. 7, N-(2-nitrobenzoyl)-N'-[4-(6-bromo-3-pyridazinyloxy)-3-nitrophenyl]urea] as the compound, how does the ILS at 100 mg/kg/day (p-388 leukemia cells [1]; [3]) read?
Answer: 152%

Question: And the LD50 (Acute toxicity, LD50)?
Answer: ≥ 100 mg/kg

Question: What does the source list for `O=C(NC(=O)c1ccccc1[N+](=O)[O-])Nc1ccc(Oc2ccc(C(F)(F)F)cn2)c([N+](=O)[O-])c1` [Compound No. 9, N-(2-nitrobenzoyl)-N'-[4-(5-trifluoromethyl-2-pyridyloxy)-3-nitrophenyl]urea]?
Answer: ILS at 100 mg/kg/day (p-388 leukemia cells [1]; [3]): 119%; LD50 (Acute toxicity, LD50): ≥ 100 mg/kg

Question: For `O=C(NC(=O)c1ccccc1[N+](=O)[O-])Nc1ccc(Oc2ccc(Cl)cn2)c([N+](=O)[O-])c1` [Compound No. 10, N-(2-nitrobenzoyl)-N'-[4-(5-chloro-2-pyridyloxy)-3nitrophenyl]urea], which ILS at 100 mg/kg/day (p-388 leukemia cells [1]; [3]) is on record?
Answer: 153%

Question: And the LD50 (Acute toxicity, LD50)?
Answer: ≥ 100 mg/kg

Question: With `O=C(NC(=O)c1ccccc1[N+](=O)[O-])Nc1ccc(Oc2ncc(I)cn2)c(Cl)c1` [compound 7, N--(2nitrobenzoyl)-N'--[3chloro-4-(5-iodo-2-pyrimidinyloxy)phenyl]urea] as the compound, how does the “ILS (increase life span)” value (p-388 leukemia cells [2]; 1600 mg/kg/day) read?
Answer: 41%
